We go through eleven compounds from PMC4476725 (PLoS Pathogens, 2015).

Data set [1] deals with RSV polymerase QUAD mutant (Human respiratory syncytial virus A, UniProt P28887, A789V/I796V/L795I/M628L). Put plainly: Single nucleotide incorporation by recombinant RSV L-P polymerase, QUAD mutant. The class given is biochemical. As to conditions: for Km: primer extension from the +3 position, n = 2.
Another data set addresses RSV RNP complex (Human respiratory syncytial virus A, UniProt P28887). Put plainly: biochemical. As to conditions: for inhibition of RSV RNP complex (in words): Fig 5B; for IC50: read-out: RSV polymerase inhibition class (IC50, RSV RNP complex). The class given is biochemical.
The target in another data set is HCV polymerase (Hepatitis C virus genotype 1b, UniProt Q9WMX2). Put plainly: HCV polymerase inhibition assay. As to conditions: for IC50: read-out: HCV polymerase inhibition class (IC50). The class given is biochemical.
Data set [2] deals with T1, wild-type RSV L-P RNA polymerase complex (Human respiratory syncytial virus A, UniProt P28887).
T1 construct: made in house; host or cells: insect cells
The format is biochemical. The conditions noted are these: for discrimination relative to natural CTP, WT RSV polymerase: Km CTP analog / Km CTP; for Km: primer extension from the +3 position, read-out: Km, single nucleotide incorporation, WT RSV L-P.

Data set [3] deals with human mitochondrial RNA polymerase (Homo sapiens, UniProt O00411). Put plainly: DdRp assay with human mitochondrial RNA polymerase, single turnover. The format is biochemical.
The subject of a further data set is RSV replicon. Put plainly: RSV subgenomic replicon assay (luciferase). The format is cell-based, Respiratory syncytial virus. The method, then:
The RSV subgenomic replicon (Apath, Brooklyn, NY, USA) was used as previously described. The HeLa-derived cells containing the stable RSV replicon were cultured in DMEM containing 4500 mg/L D-glucose, L-glutamine, and 110 mg/L sodium pyruvate. The medium was further supplemented with 10% (v/v) FBS (Mediatech), 1% (v/v) penicillin/streptomycin (Mediatech), and 10 μg/mL of Blasticidin (BSD) (Invivogen). Cells were maintained at 37°C in a humidified 5% CO2 atmosphere. On the first day, 5000 RSV replicon cells per well were plated in a 96-well plate. On the following day, compounds to be tested were solubilized in 100% DMSO to 100 × the desired final testing concentration. Cells were incubated with compounds for 7 days at 37°C in a 5% CO2 atmosphere before measurement of the luciferase readout. Cell viability (CC50) was measured with a CellTiter-Glo cell proliferation assay (Promega).

Details of data set [4]: method as in PMID 25667954. As to conditions: cited from earlier work.
The subject of a further data set is RSV A2. Put plainly: African Green monkey efficacy model. The format is in vivo, African Green monkeys (Chlorocebus sabaeus). The conditions noted are these: oral BID, 200 mg/kg loading then 50 mg/kg, 6 days.

Where two headings read alike, the source gives them in different places. Where only a bound is given, the exact number is not on record here.

Sequence of RSV polymerase QUAD mutant (P28887 whole entry A789V/I796V/L795I/M628L, looked up): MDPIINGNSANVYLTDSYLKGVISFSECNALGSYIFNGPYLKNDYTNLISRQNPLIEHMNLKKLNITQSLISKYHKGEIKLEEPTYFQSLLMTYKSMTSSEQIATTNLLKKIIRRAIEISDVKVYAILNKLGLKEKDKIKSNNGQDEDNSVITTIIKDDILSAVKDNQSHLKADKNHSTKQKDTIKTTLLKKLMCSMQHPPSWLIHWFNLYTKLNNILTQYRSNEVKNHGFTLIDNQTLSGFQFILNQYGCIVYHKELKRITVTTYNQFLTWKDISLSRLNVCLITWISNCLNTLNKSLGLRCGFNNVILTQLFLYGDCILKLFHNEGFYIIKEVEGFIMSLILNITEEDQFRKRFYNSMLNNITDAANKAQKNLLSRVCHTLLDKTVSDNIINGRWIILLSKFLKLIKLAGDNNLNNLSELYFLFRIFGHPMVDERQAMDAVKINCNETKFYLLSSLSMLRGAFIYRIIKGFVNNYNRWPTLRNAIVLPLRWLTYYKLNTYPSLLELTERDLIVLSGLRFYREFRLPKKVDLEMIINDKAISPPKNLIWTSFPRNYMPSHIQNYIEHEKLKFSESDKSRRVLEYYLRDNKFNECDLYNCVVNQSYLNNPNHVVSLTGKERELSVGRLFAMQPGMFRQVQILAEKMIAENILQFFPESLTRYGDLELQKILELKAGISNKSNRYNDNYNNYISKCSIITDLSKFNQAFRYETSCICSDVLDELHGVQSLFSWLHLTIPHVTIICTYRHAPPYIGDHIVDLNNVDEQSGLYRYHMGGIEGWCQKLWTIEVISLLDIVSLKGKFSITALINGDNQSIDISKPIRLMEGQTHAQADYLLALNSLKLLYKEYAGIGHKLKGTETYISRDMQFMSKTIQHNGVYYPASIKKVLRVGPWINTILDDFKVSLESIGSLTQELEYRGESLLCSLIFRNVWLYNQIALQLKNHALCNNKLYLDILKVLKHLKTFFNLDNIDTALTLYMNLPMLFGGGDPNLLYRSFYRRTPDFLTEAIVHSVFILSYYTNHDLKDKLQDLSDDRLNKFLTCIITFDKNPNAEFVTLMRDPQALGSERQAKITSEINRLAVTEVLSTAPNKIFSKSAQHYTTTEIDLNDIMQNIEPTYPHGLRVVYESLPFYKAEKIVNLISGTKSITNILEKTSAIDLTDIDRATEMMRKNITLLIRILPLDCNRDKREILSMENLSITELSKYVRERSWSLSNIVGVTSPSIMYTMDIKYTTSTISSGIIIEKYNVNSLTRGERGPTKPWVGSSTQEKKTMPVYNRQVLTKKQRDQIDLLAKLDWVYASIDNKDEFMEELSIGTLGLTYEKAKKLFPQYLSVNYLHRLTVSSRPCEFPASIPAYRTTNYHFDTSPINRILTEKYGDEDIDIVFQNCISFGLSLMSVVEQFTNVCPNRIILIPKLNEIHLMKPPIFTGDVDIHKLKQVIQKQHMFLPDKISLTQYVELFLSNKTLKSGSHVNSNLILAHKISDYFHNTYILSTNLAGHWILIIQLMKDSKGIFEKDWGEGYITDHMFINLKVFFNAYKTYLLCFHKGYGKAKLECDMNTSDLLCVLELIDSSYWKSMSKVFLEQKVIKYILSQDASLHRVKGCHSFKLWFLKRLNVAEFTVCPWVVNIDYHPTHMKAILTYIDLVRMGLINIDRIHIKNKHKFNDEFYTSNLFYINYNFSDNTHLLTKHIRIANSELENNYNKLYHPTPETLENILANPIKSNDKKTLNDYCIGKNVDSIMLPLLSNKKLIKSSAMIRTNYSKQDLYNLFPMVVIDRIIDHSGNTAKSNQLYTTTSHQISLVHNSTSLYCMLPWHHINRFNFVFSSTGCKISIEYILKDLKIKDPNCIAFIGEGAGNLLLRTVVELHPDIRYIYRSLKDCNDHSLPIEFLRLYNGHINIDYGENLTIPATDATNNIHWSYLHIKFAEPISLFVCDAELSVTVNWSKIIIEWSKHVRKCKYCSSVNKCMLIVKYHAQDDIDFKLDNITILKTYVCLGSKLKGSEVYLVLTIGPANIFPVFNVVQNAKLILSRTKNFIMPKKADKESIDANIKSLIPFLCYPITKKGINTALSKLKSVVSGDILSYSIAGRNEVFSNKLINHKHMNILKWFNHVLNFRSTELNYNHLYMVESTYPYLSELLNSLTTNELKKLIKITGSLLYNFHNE
Sequence of HCV polymerase (Q9WMX2 2420-3010): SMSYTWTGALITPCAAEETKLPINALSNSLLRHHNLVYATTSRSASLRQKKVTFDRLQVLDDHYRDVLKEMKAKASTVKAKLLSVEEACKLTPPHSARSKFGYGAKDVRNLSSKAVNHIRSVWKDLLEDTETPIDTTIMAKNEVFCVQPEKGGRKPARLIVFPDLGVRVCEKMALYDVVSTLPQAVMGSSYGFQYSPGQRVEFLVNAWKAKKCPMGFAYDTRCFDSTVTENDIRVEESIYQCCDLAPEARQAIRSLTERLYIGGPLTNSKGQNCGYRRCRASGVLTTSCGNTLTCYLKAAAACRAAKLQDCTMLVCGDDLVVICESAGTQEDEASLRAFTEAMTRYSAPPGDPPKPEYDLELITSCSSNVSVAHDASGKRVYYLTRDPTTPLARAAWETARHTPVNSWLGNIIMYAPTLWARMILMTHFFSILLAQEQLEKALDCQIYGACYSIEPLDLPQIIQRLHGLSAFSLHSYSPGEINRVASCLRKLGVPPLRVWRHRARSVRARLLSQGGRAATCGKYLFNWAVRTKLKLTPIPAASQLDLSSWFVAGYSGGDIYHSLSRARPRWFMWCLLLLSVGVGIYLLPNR
Sequence of human mitochondrial RNA polymerase (O00411 42-1230): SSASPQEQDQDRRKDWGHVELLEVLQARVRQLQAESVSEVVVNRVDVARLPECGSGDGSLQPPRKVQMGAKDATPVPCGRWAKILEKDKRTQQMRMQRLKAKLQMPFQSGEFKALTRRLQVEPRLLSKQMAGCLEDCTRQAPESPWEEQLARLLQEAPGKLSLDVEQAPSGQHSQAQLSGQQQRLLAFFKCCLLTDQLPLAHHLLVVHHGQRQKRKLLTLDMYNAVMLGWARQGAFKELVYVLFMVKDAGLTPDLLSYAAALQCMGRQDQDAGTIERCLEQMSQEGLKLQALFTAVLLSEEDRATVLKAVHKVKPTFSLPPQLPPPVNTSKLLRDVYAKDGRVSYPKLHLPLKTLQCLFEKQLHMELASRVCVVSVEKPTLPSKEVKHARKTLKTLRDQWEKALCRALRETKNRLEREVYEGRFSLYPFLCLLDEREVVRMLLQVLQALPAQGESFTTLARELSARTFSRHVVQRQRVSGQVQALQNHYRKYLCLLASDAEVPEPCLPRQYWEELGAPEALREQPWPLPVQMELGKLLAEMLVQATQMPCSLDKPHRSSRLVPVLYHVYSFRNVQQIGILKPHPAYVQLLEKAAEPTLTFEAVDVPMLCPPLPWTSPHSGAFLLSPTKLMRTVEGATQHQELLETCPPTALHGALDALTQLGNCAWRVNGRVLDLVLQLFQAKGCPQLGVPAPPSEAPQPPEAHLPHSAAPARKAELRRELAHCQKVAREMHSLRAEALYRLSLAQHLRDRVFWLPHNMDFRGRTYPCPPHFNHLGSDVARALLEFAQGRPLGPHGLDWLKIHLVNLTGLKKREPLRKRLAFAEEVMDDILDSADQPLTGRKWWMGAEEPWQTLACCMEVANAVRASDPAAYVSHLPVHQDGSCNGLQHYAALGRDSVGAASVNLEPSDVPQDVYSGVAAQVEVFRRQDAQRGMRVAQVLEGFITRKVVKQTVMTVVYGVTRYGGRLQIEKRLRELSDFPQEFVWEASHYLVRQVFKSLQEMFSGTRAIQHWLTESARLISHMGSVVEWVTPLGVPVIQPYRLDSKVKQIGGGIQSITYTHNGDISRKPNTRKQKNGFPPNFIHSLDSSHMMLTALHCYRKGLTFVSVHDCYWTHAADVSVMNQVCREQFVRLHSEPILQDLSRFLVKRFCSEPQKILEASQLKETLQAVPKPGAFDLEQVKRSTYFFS

Consider 4'ClCH2-CTP, for which the Km in data set [1] worked out at 198 ± 18 µM; in data set [2], 16 ± 2.7 µM. Moreover, in data set [1] (recombinant L-P enzymes), the “increase in discrimination, QUAD vs WT (resistance level)” value is listed as 24 fold. Also, the “inhibition of RSV RNP complex (in words)” value on RSV RNP complex was “dual RSV/HCV polymerase inhibitors”. Moreover, the IC50 at RSV RNP complex (first symbol of RSV / HCV) and at HCV polymerase (second symbol of RSV / HCV) was 0.1 to 10 µM in each case. On HCV polymerase (Fig 5B), the “inhibition of HCV polymerase (in words)” value is “dual RSV/HCV polymerase inhibitors”. The “substrate and chain termination profile with recombinant RSV polymerase (in words)” value (shortened to “substrate and chain termination profile”) in data set [2] (Fig 5A) is on record as “less efficiently recognized”. Moreover, the “discrimination relative to natural CTP, WT RSV polymerase” value in data set [2] worked out at 288±48 fold.
For the compound `[N-]=[N+]=N[C@]1(COP(=O)(O)OP(=O)(O)OP(=O)(O)O)O[C@@H](n2ccc(N)nc2=O)[C@H](F)[C@@H]1O` [2'F-4'N3-CTP], the “inhibition of RSV RNP complex (in words)” value at RSV RNP complex was “dual RSV/HCV polymerase inhibitors”. Also, the IC50 on RSV RNP complex (first symbol of RSV / HCV) and at HCV polymerase (second symbol of RSV / HCV) was 0.1 to 10 µM each time. At HCV polymerase (Fig 5B), the “inhibition of HCV polymerase (in words)” value is reported as “dual RSV/HCV polymerase inhibitors”. Moreover, the “substrate and chain termination profile” value in data set [2] (Fig 5A) is “both substrates and chain terminators”.
Regarding `Nc1ccn([C@@H]2O[C@H](COP(=O)(O)OP(=O)(O)OP(=O)(O)O)[C@@H](O)[C@H]2F)c(=O)n1` [2'F-CTP], the “inhibition of HCV polymerase (in words)” value on HCV polymerase was “did not efficiently inhibit”. In addition, the “recognition as substrate by human mitochondrial RNA polymerase (in words)” value in data set [3] is recorded as “recognized as a substrate”.
As to `Nc1ccn([C@@H]2O[C@](CCl)(COP(=O)(O)OP(=O)(O)OP(=O)(O)O)[C@@H](O)C2(F)F)c(=O)n1` [2'diF-4'ClCH2-CTP], the IC50 on RSV RNP complex (first symbol of RSV / HCV) and on HCV polymerase (second symbol of RSV / HCV) was greater than 10 µM throughout. Moreover, the “substrate and chain termination profile” value in data set [2] was “almost completely inactive”.
`[N-]=[N+]=NC1(COP(=O)(O)OP(=O)(O)OP(=O)(O)O)OC(n2ccc(N)nc2=O)C(F)(F)C1O` (stereo not shown) [2'diF-4'N3-CTP]: at RSV RNP complex, the “inhibition of RSV RNP complex (in words)” value is listed as “dual RSV/HCV polymerase inhibitors”. Moreover, the IC50 at RSV RNP complex (first symbol of RSV / HCV) and at HCV polymerase (second symbol of RSV / HCV) was 0.1 to 10 µM in each case. Besides, the “inhibition of HCV polymerase (in words)” value at HCV polymerase (Fig 5B) is on record as “dual RSV/HCV polymerase inhibitors”. Besides, the “substrate and chain termination profile” value in data set [2] is “both substrates and chain terminators”.
On to `Nc1ccn([C@@H]2O[C@H](COP(=O)(O)OP(=O)(O)OP(=O)(O)O)[C@@H](O)C2(F)F)c(=O)n1` [2'diF-CTP, reference compound], for which, at RSV RNP complex, the “inhibition of RSV RNP complex (in words)” value is given as “did not efficiently inhibit”. In addition, the IC50 at RSV RNP complex (first symbol of RSV / HCV) was greater than 10 µM; at HCV polymerase (second symbol of RSV / HCV) it was 0.1 to 10 µM. The “inhibition of HCV polymerase (in words)” value on HCV polymerase (Fig 5B) was “did not efficiently inhibit”. The “substrate and chain termination profile” value in data set [2] is “substrates for RSV polymerase, but did not cause immediate chain termination”.
On to `[N-]=[N+]=N[C@]1(COP(=O)(O)OP(=O)(O)OP(=O)(O)O)O[C@@H](n2ccc(N)nc2=O)[C@H](O)[C@@H]1O` [4'N3-CTP, reference compound], for which, at RSV RNP complex, the “inhibition of RSV RNP complex (in words)” value was “dual RSV/HCV polymerase inhibitors”. For the same compound, the concentration for half-maximal inhibition (IC50) on RSV RNP complex (first symbol of RSV / HCV) was 0.1 to 10 µM; on HCV polymerase (second symbol of RSV / HCV), less than 0.1 µM. Moreover, at HCV polymerase (Fig 5B), the “inhibition of HCV polymerase (in words)” value is reported as “dual RSV/HCV polymerase inhibitors”. For the same compound, the “recognition as substrate by human mitochondrial RNA polymerase (in words)” value in data set [3] (100 μM of each NTP) is “efficiently incorporated”. For the same compound, the “substrate and chain termination profile” value in data set [2] is “both substrates and chain terminators”.
For the compound `Nc1ccn([C@@H]2O[C@](CCl)(CI)[C@@H](O)[C@H]2F)c(=O)n1` [ALS-8112-I, 4’-Chloromethyl-2’,5’-dideoxy-2’-fluoro-5’-iodocytidine], the “inhibition of luciferase activity in the RSV replicon (in words)” value in the data set with RSV replicon is recorded as “did not significantly inhibit”.
For `CC(C)C(=O)OC[C@@]1(CCl)O[C@@H](n2ccc(N)nc2=O)[C@H](F)[C@@H]1OC(=O)C(C)C` [ALS-8176, 4'-chloromethyl-2'-deoxy-3',5'-di-O-isobutyryl-2'-fluorocytidine], in data set [4], the oral bioavailability entry is given as “high”. In the data set with RSV A2 (end of treatment), the “difference in RSV RNA titers, vehicle vs treated, BAL” value is reported as greater than 4 log10 copies/mL and the “difference in RSV RNA titers, vehicle vs treated, nasopharyngeal (NP) swab” value was “about 3 log10 copies/mL”. The “RSV RNA titer in bronchoalveolar lavage (BAL) samples” value in the data set with RSV A2 (end of treatment (Day 5 post-infection), all four animals, LOD 50 copies/mL) is less than 50 copies/mL.
Turning to `C[C@@]1(F)[C@H](O)[C@@H](COP(=O)(O)OP(=O)(O)OP(=O)(O)O)O[C@H]1n1ccc(N)nc1=O` [mericitabine-TP, 2'F-2'Me-CTP, reference compound], the IC50 was greater than 10 µM on RSV RNP complex (first symbol of RSV / HCV) and less than 0.1 µM at HCV polymerase (second symbol of RSV / HCV). Also, the “substrate and chain termination profile” value in data set [2] (Fig 5A) was “almost completely inactive”. The “discrimination relative to natural CTP, WT RSV polymerase” value in data set [2] is “greater than 5,000 fold”. Further, the “level of incorporation by RSV polymerase” value in data set [2] (at a concentration of 300 μM) is on record as “less than 20%”.
Regarding “cytidine triphosphate [CTP, reference compound]”, the Km amounted to 0.056 ± 0.01 µM in data set [1] and 0.057 ± 0.009 µM in data set [2]. The IC50 on RSV RNP complex and at HCV polymerase was greater than 10 µM in each case.

As a reminder, the IC50 is the concentration that inhibits the measured activity by half.
